The values that follow come from patent US9556165B2 (priority 2012, dated 2017).

Converted amounts (≈) assume the structure as drawn.

Type in all cases: cell-based
The subject of one assay is E. coli ATCC25922. In words: MIC determination, broth microdilution (CLSI). As to conditions: Escherichia coli, ATCC25922, strain 1. A general note: In broth dilution the organism is exposed to a series of concentrations in liquid medium.
Another assay deals with K. pneumoniae 60. In words: MIC determination, broth microdilution (CLSI). To be noted: Klebsiella pneumoniae, 60, strain 2.
The subject of the next assay is E. cloacae 34654. Put plainly: MIC determination, broth microdilution (CLSI). To be noted: Enterobacter cloacae, 34654, strain 3.
The next assay relates to C. freundii K21/3034. In words: MIC determination, broth microdilution (CLSI). To be noted: Citrobacter freundii, K21/3034, strain 4.
Another assay relates to M. morganii 126/3048. In words: MIC determination, broth microdilution (CLSI). To be noted: Morganella morganii, 126/3048, strain 5.
Another assay relates to P. aeruginosa PAO1. In words: MIC determination, broth microdilution (CLSI). To be noted: Pseudomonas aeruginosa, PAO1, strain 6.
Assay [1] has as its system P. aeruginosa 2297 (AmpC wt). Put plainly: MIC determination, broth microdilution (CLSI). To be noted: Pseudomonas aeruginosa, strain 7.
The subject of assay [2] is P. aeruginosa 2297-con (AmpC derepressed). Put plainly: MIC determination, broth microdilution (CLSI). To be noted: Pseudomonas aeruginosa, read-out: strain 8 MIC, strain 8.
The subject of a further assay is A. baumannii ATCC15308. Put plainly: MIC determination, broth microdilution (CLSI). As to conditions: Acinetobacter baumannii, ATCC15308, strain 9.
The subject of the next assay is S. maltophilia ICB7569. Put plainly: MIC determination, broth microdilution (CLSI). As to conditions: Stenotrophomonas maltophilia, ICB7569, strain 10.
In another assay the test system is S. aureus 133. Put plainly: MIC determination, broth microdilution (CLSI). As to conditions: Staphylococcus aureus, 133, strain 11; read-out: strain 11 MIC.
The subject of a further assay is M. catarrhalis ICB489. Put plainly: MIC determination, broth microdilution (CLSI). To be noted: Moraxella catarrhalis, ICB489, strain 12.
The next assay concerns H. influenzae ATCC 49247. In words: MIC determination, broth microdilution (CLSI). As to conditions: Haemophilus influenzae, ATCC49247, strain 13; read-out: strain 13 MIC.
A further assay relates to S. pneumoniae 113. Put plainly: MIC determination, broth microdilution (CLSI). To be noted: Streptococcus pneumoniae, 113, strain 14; read-out: strain 14 MIC.
A further assay relates to B. fragilis 6688. In words: MIC determination, broth microdilution (CLSI). To be noted: Bacteroides fragilis, 6688, strain 15; read-out: strain 15 MIC.
The next assay has as its system C. perfringens DSM756. In words: microbe, parasite or virus in culture. To be noted: Clostridium perfringens, DSM756, read-out: strain 16 MIC, strain 16.
The subject of a further assay is E. coli J62. In words: MIC determination, broth microdilution (CLSI). As to conditions: Escherichia coli, J62, strain 17; read-out: strain 17 MIC.
The next assay concerns E. coli J62-TEM-3. In words: MIC determination, broth microdilution (CLSI). To be noted: Escherichia coli, J62TEM3, read-out: strain 18 MIC, strain 18.
A further assay concerns strain 19. Put plainly: MIC determination, broth microdilution (CLSI).
The next assay has as its system strain 20. In words: MIC determination, broth microdilution (CLSI).
In a further assay the test system is strain 21. Put plainly: MIC determination, broth microdilution (CLSI).

Regarding `CC1(C)[C@H](NC(=O)/C(=N\OCCOc2cnc(C(=N)N)c(O)c2)c2csc(N)n2)C(=O)N1OS(=O)(=O)O` [Example 33, (2Z)-2-(2-Amino-1,3-thiazol-4-yl)-2-({2-[(6-carbamimidoyl-5-hydroxypyridin-3-yl)oxy]ethoxy}imino)-N-[(3S)-2,2-dimethyl-4-oxo-1-(sulfooxy)azetidin-3-yl]ethanamide], the MIC against E. coli ATCC25922 worked out at 0.25 µg/mL (≈ 0.448 µM); against K. pneumoniae 60, 0.5 µg/mL (≈ 0.895 µM); against E. cloacae 34654, 0.5 µg/mL (≈ 0.895 µM); against C. freundii K21/3034 it was 0.25 µg/mL (≈ 0.448 µM); against M. morganii 126/3048, 0.25 µg/mL (≈ 0.448 µM); against P. aeruginosa PAO1 it was 8 µg/mL (≈ 14.3 µM). In addition, the MIC in assay [1] was 16 µg/mL (≈ 28.6 µM); in assay [2], 8 µg/mL (≈ 14.3 µM); in the assay on A. baumannii ATCC15308, 8 µg/mL (≈ 14.3 µM); in the assay with S. maltophilia ICB7569, 16 µg/mL (≈ 28.6 µM); in the assay with S. aureus 133, at most 0.063 µg/mL; against M. catarrhalis ICB489, 0.125 µg/mL (≈ 0.224 µM). The MIC with H. influenzae ATCC 49247 is at most 0.063 µg/mL; in the assay with S. pneumoniae 113, 32 µg/mL (≈ 57.3 µM); with B. fragilis 6688 it was 4 µg/mL (≈ 7.16 µM); in the assay with C. perfringens DSM756 it was 2 µg/mL (≈ 3.58 µM); with E. coli J62, 0.5 µg/mL (≈ 0.895 µM); with E. coli J62-TEM-3, 32 µg/mL (≈ 57.3 µM). In addition, the MIC with strain 19 is 0.25 µg/mL (≈ 0.448 µM); in the assay with strain 20, 0.25 µg/mL (≈ 0.448 µM); against strain 21, 0.5 µg/mL (≈ 0.895 µM).

Regarding `CC1(C)[C@H](NC(=O)/C(=N\OCCOc2ccc(C3=NCCN3)cc2)c2csc(N)n2)C(=O)N1OS(=O)(=O)O` [Example 25, (2Z)-2-(2-Amino-1,3-thiazol-4-yl)-2-({2-[4-(4,5-dihydro-1H-imidazol-2-yl)phenoxy]ethoxy}imino)-N-[(3S)-2,2-dimethyl-4-oxo-1-(sulfooxy)azetidin-3-yl]ethanamide], the MIC was 0.125 µg/mL (≈ 0.22 µM) with E. coli ATCC25922; 0.25 µg/mL (≈ 0.44 µM) against K. pneumoniae 60; 0.25 µg/mL (≈ 0.44 µM) in the assay on E. cloacae 34654; 0.125 µg/mL (≈ 0.22 µM) in the assay with C. freundii K21/3034; 0.125 µg/mL (≈ 0.22 µM) against M. morganii 126/3048; 2 µg/mL (≈ 3.52 µM) in the assay on P. aeruginosa PAO1. Besides, the MIC in [1] is 4 µg/mL (≈ 7.05 µM); in assay [2], 4 µg/mL (≈ 7.05 µM); against A. baumannii ATCC15308 it was 2 µg/mL (≈ 3.52 µM); in the assay with S. maltophilia ICB7569 it was 8 µg/mL (≈ 14.1 µM); in the assay with S. aureus 133, at most 0.063 µg/mL; against M. catarrhalis ICB489, at most 0.063 µg/mL. The MIC in the assay with H. influenzae ATCC 49247 was at most 0.063 µg/mL; in the assay with S. pneumoniae 113, 4 µg/mL (≈ 7.05 µM); with B. fragilis 6688, 2 µg/mL (≈ 3.52 µM); in the assay on C. perfringens DSM756, 2 µg/mL (≈ 3.52 µM); in the assay on E. coli J62, 0.25 µg/mL (≈ 0.44 µM); in the assay with E. coli J62-TEM-3, 4 µg/mL (≈ 7.05 µM). The MIC with strain 19, in the assay with strain 20 and in the assay with strain 21 was 0.125 µg/mL (≈ 0.22 µM) in each case.
